PMC8286840, “Identifying SARS-CoV-2 antiviral compounds by screening for small molecule inhibitors of Nsp3 papain-like protease” (Biochemical Journal, 2021)
Where a name gives a salt, the structure may show the parent alone. Read-outs that look alike come from different tables or passages of the source. Where no end group is shown, it is not given here.

Assays:
[1] = molecular target: T1, SARS-CoV-2 PLpro (nsp3 1564–1878) (Severe acute respiratory syndrome coronavirus 2, UniProt P0DTD1); experiment: biochemical; set-up: FRET-quenched peptide (Pro3) cleavage by PLpro, 10 min pre-incubation, slope over 20 min, normalised to no-compound control; conditions: high concentration screen, read-out: % of control remaining
[2] = molecular target: T1, SARS-CoV-2 PLpro (nsp3 1564–1878); experiment: biochemical; set-up: FRET-quenched peptide (Pro3) cleavage by PLpro, 10 min pre-incubation, slope over 20 min, normalised to no-compound control; conditions: low concentration screen, read-out: % of control remaining

Q: Which results are given for KIPYIL [Neuromedin N]?
A: remaining activity at 3.75 µM ([1]; Well no.=8061): 90.1%; remaining activity at 3.75 µM ([1]; Well no.=8502): 102%; remaining activity at 1.25 µM ([2]; Well no.=8061): 91.8%; remaining activity at 1.25 µM ([2]; Well no.=8502): 105%

Q: How did the remaining activity at 3.75 µM ([1]; Well no.=155) turn out when `Nc1ncn([C@@H]2O[C@H](CO)[C@@H](O)[C@H]2O)c(=O)n1` [5-azacytidine] was run?
A: 96.6%

Q: What about the remaining activity at 1.25 µM ([2]; Well no.=155) of the same compound?
A: 95.5%

Q: Which remaining activity at 3.75 µM ([1]; Well no.=1053) does the source give for `Oc1ccc2c3c1O[C@H]1c4[nH]c5ccccc5c4C[C@@]4(O)[C@@H](C2)N(CC2CC2)CC[C@]314` [Naltrindole hydrochloride] here?
A: 93.2%

Q: And the remaining activity at 1.25 µM ([2]; Well no.=1053)?
A: 92.8%

Q: Which results are given for `Cc1[nH]c(=O)c(C#N)cc1-c1ccncc1` [Milrinone]?
A: remaining activity at 3.75 µM ([1]; Well no.=832): 101%; remaining activity at 3.75 µM ([1]; Well no.=2150): 97.1%; remaining activity at 1.25 µM ([2]; Well no.=832): 101%; remaining activity at 1.25 µM ([2]; Well no.=2150): 95.5%

Q: Which remaining activity at 3.75 µM ([1]; Well no.=1878) does the source give for `CCN[C@H]1C[C@H](C)S(=O)(=O)c2sc(S(N)(=O)=O)cc21` [Dorzolamide.HCl] here?
A: 96.1%

Q: What about the remaining activity at 1.25 µM ([2]; Well no.=1878) of the same compound?
A: 96.7%

Q: For `CC(C)Oc1ccc(C(=O)Cn2ccnc2)cc1-n1c(CN2CCN(C(=O)COc3ccc(Cl)cc3)CC2)nc2ccccc2c1=O` [Imidazole ketone erastin], which remaining activity at 3.75 µM ([1]; Well no.=6884) is on record?
A: 97%

Q: And the remaining activity at 1.25 µM ([2]; Well no.=6884)?
A: 95.5%

Q: `O=C(O)c1cc2cc(F)ccc2[nH]1` [5-Fluoroindole-2-carboxylic acid] was tested. Which remaining activity at 3.75 µM ([1]; Well no.=339) did it give?
A: 97.9%

Q: What about the remaining activity at 1.25 µM ([2]; Well no.=339) of the same compound?
A: 99.4%

Q: With `C[C@H]1OC[C@@H](C[N+](C)(C)C)O1` [(+)-cis-Dioxolane iodide] as the compound, how does the remaining activity at 3.75 µM ([1]; Well no.=579) read?
A: 100%

Q: What about the remaining activity at 1.25 µM ([2]; Well no.=579) of the same compound?
A: 103%

Q: For `O=C(O)CN(CCN(CC(=O)O)Cc1ccccc1O)Cc1ccccc1O`, which remaining activity at 3.75 µM ([1]; Well no.=3846) is on record?
A: 103%

Q: What about the remaining activity at 1.25 µM ([2]; Well no.=3846) of the same compound?
A: 106%

Q: With `CC(C)C[C@@H](C(=O)O)c1cc(-c2ccc(C(F)(F)F)cc2)cc(-c2ccc(C(F)(F)F)cc2)c1` [(R)-2-(4,4''-bis(trifluoromethyl)-[1,1':3',1''-terphenyl]-5'-yl)-4-methylpentanoic acid] as the compound, how does the remaining activity at 3.75 µM ([1]; Well no.=5455) read?
A: 106%

Q: And the remaining activity at 1.25 µM ([2]; Well no.=5455)?
A: 99.6%

Q: What does the source list for `O=[N+]([O-])c1ccc(S(=O)(=O)NCc2ccccc2)c([N+](=O)[O-])c1` [N-Benzyl-2,4-dinitrobenzenesulfonamide]?
A: remaining activity at 3.75 µM ([1]; Well no.=6125): 102%; remaining activity at 1.25 µM ([2]; Well no.=6125): 98.4%

Q: `CC(C)OC(=O)C(C)(C)Oc1ccc(C(=O)c2ccc(Cl)cc2)cc1` [Fenofibrate] was tested. Which remaining activity at 3.75 µM ([1]; Well no.=421) did it give?
A: 101%

Q: What about the remaining activity at 3.75 µM ([1]; Well no.=2084) of the same compound?
A: 102%

Q: What about the remaining activity at 1.25 µM ([2]; Well no.=421) of the same compound?
A: 97.6%

Q: What about the remaining activity at 1.25 µM ([2]; Well no.=2084) of the same compound?
A: 99.9%

Q: With `COCC[n+]1c2c(n(Cc3cnccn3)c1C)C(=O)c1ccccc1C2=O` [YM-155] as the compound, how does the remaining activity at 3.75 µM ([1]; Well no.=6678) read?
A: 91.4%

Q: What about the remaining activity at 1.25 µM ([2]; Well no.=6678) of the same compound?
A: 94.8%

Q: What does the source list for `CCCCCCCC/C=C\CCCCCCC(O)C(=O)O` (stereo not drawn) [2OHOA]?
A: remaining activity at 3.75 µM ([1]; Well no.=5534): 96.7%; remaining activity at 1.25 µM ([2]; Well no.=5534): 97.8%

Q: What does the source list for `COC(=O)Nc1nc2cc([S+]([O-])c3ccccc3)ccc2[nH]1` (stereo not drawn) [Oxfendazole]?
A: remaining activity at 3.75 µM ([1]; Well no.=2059): 105%; remaining activity at 1.25 µM ([2]; Well no.=2059): 105%

Q: For `N=C(N)NN` [Aminoguanidine hydrochloride], which remaining activity at 3.75 µM ([1]; Well no.=104) is on record?
A: 94.6%

Q: What about the remaining activity at 1.25 µM ([2]; Well no.=104) of the same compound?
A: 93%

Q: `C[C@]1(C(=O)O)CCC[C@]2(C)c3cc(O)ccc3CC[C@@H]12` [Podocarpic acid] was tested. Which remaining activity at 3.75 µM ([1]; Well no.=3296) did it give?
A: 96.2%

Q: What about the remaining activity at 1.25 µM ([2]; Well no.=3296) of the same compound?
A: 94%

Q: With `Nc1nc2[nH]cc(CCc3ccc(C(=O)N[C@@H](CCC(=O)O)C(=O)O)cc3)c2c(=O)[nH]1` [Pemetrexed (disodium hemipenta hydrate)] as the compound, how does the remaining activity at 3.75 µM ([1]; Well no.=7604) read?
A: 95.6%

Q: What about the remaining activity at 1.25 µM ([2]; Well no.=7604) of the same compound?
A: 95.1%

Q: What does the source list for `O=C(O)CCC(=O)O` [Succinic acid]?
A: remaining activity at 3.75 µM ([1]; Well no.=7353): 106%; remaining activity at 1.25 µM ([2]; Well no.=7353): 106%

Q: Which results are given for `CO[C@H]1/C=C/O[C@@]2(C)Oc3c(C)c(O)c4c(O)c(cc(O)c4c3C2=O)NC(=O)/C(C)=C\C=C\[C@H](C)[C@H](O)[C@@H](C)[C@@H](O)[C@@H](C)[C@H](OC(C)=O)[C@@H]1C` [RIFAMYCIN SV]?
A: remaining activity at 3.75 µM ([1]; Well no.=1987): 97.9%; remaining activity at 1.25 µM ([2]; Well no.=1987): 105%

Q: Which remaining activity at 3.75 µM ([1]; Well no.=6974) does the source give for `COc1cc2c(cc1OC(C)C)[C@H](c1ccc(Cl)cc1)N(c1ccc(N(C)C[C@H]3CC[C@H](N4CCN(C)C(=O)C4)CC3)cc1)C(=O)C2` [NVP-CGM097] here?
A: 94.5%

Q: And the remaining activity at 1.25 µM ([2]; Well no.=6974)?
A: 95.7%

Q: `C[C@@]1(O)[C@H](O)[C@@H](CO)O[C@H]1n1ccc(N)nc1=O` [NM107] was tested. Which remaining activity at 3.75 µM ([1]; Well no.=8897) did it give?
A: 100%

Q: What about the remaining activity at 1.25 µM ([2]; Well no.=8897) of the same compound?
A: 99.5%

Q: For `CC1(C)CC(=O)C2=C(C1)NC(=S)NC2c1cccc(O)c1` (stereo not drawn) [4-(3-hydroxyphenyl)-7,7-dimethyl-2-thioxo-2,3,4,6,7,8-hexahydro-5(1H)-quinazolinone], which remaining activity at 3.75 µM ([1]; Well no.=5634) is on record?
A: 95.1%

Q: What about the remaining activity at 1.25 µM ([2]; Well no.=5634) of the same compound?
A: 94.5%

Q: How did the remaining activity at 3.75 µM ([1]; Well no.=8312) turn out when `N[C@@H](Cc1cnc[nH]1)C(=O)N[C@@H](Cc1cnc[nH]1)C(=O)N[C@@H](Cc1cnc[nH]1)C(=O)N[C@@H](Cc1cnc[nH]1)C(=O)N[C@@H](Cc1cnc[nH]1)C(=O)N[C@@H](Cc1cnc[nH]1)C(=O)O` [Hexa-His] was run?
A: 96.4%

Q: And the remaining activity at 1.25 µM ([2]; Well no.=8312)?
A: 94.5%

Q: What does the source list for `NS(=O)(=O)c1ccc2c(c1)C1C=CCC1C(c1ccc(Br)cc1)N2` (stereo not drawn) [4BP-TQS]?
A: remaining activity at 3.75 µM ([1]; Well no.=5971): 105%; remaining activity at 1.25 µM ([2]; Well no.=5971): 105%

Q: Which results are given for `COc1ccc(C2=N[C@@H](c3ccc(Cl)cc3)[C@@H](c3ccc(Cl)cc3)N2C(=O)N2CCNC(=O)C2)c(OC(C)C)c1` [Nutlin (3a)]?
A: remaining activity at 3.75 µM ([1]; Well no.=6440): 93.4%; remaining activity at 3.75 µM ([1]; Well no.=7746): 93.2%; remaining activity at 1.25 µM ([2]; Well no.=6440): 92.9%; remaining activity at 1.25 µM ([2]; Well no.=7746): 92%

Q: Which results are given for `Cc1cn([C@H]2C[C@H](O)[C@@H](CO)O2)c(=O)[nH]c1=O` [Thymidine]?
A: remaining activity at 3.75 µM ([1]; Well no.=7349): 106%; remaining activity at 3.75 µM ([1]; Well no.=7770): 97.4%; remaining activity at 1.25 µM ([2]; Well no.=7349): 104%; remaining activity at 1.25 µM ([2]; Well no.=7770): 94.3%

Q: `COC(=O)[C@@H](N)Cc1ccc(O)c(O)c1` [L-3,4-Dihydroxyphenylalanine methyl ester hydrochloride] was tested. Which remaining activity at 3.75 µM ([1]; Well no.=541) did it give?
A: 103%

Q: What about the remaining activity at 1.25 µM ([2]; Well no.=541) of the same compound?
A: 103%

Q: Which results are given for `CCCC(=O)Oc1ccc2[nH]c(C(=O)c3cc4ccccc4[nH]3)cc2c1` [PDGF Receptor Tyrosine Kinase Inhibitor II]?
A: remaining activity at 3.75 µM ([1]; Well no.=2503): 99.2%; remaining activity at 1.25 µM ([2]; Well no.=2503): 101%

Q: For `CCCCCCCCCCCCCC(=O)N[C@H](C)[C@@H](O)c1ccccc1` [D-erythro MAPP], which remaining activity at 3.75 µM ([1]; Well no.=4257) is on record?
A: 98.9%

Q: What about the remaining activity at 1.25 µM ([2]; Well no.=4257) of the same compound?
A: 105%

Q: With `O=c1c(-n2ccnn2)c[nH]n1-c1cc(N2CCOCC2)ncn1` [Molidustat (BAY 85-3934)] as the compound, how does the remaining activity at 3.75 µM ([1]; Well no.=8542) read?
A: 111%

Q: And the remaining activity at 1.25 µM ([2]; Well no.=8542)?
A: 101%
